According to patent publication US7138361B2, “Herbicidal heterocycles” (E. I. du Pont de Nemours and Company, priority 2000, dated 2006):

Experiments:
Assay type in all cases: in vivo
Sunflower = assay: Test C preemergence; conditions: Rate 125 g/ha, scale 0 to 100, 0 no effect, 100 complete control
Nightshade = assay: Test C preemergence; conditions: Rate 250 g/ha, visual evaluation after 12 to 14 days
[1] = system: pigweed (Amaranthus retroflexus); assay: Test B preemergence; conditions: Preemergence, Rate 500 g/ha; scale 0 to 100, 0 no effect, 100 complete control
Outline: (§1)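 Pre: seeded pots sprayed, chemical in non-phytotoxic solvent/surfactant mix. Post: plants 2–18 cm, 1–4 leaf, same formulation. Greenhouse 13–15 d; visual % control vs untreated, 0–100 scale.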

[2] = system: barnyardgrass (Echinochloa crus-galli); assay: Test B preemergence; conditions: scale 0 to 100, 0 no effect, 100 complete control
Outline: as §1

[3] = system: morning glory (Ipomoea hederacea); assay: Test B preemergence; conditions: Preemergence, Rate 500 g/ha; scale 0 to 100, 0 no effect, 100 complete control
Outline: as §1

[4] = system: Surinam grass (Brachiaria decumbens); assay: Test B preemergence; conditions: scale 0 to 100, 0 no effect, 100 complete control
Outline: as §1

rice (Oryza saliva) = assay: Test B preemergence; conditions: Preemergence, Rate 500 g/ha; scale 0 to 100, 0 no effect, 100 complete control
Outline: as §1

corn (Zea mays) = assay: Test B preemergence; conditions: scale 0 to 100, 0 no effect, 100 complete control
Outline: as §1

[5] = system: giant foxtail (Setaria faberii); assay: Test B preemergence; conditions: scale 0 to 100, 0 no effect, 100 complete control
Outline: as §1

[6] = system: crabgrass (Digitaria sanguinalis); assay: Test B preemergence; conditions: scale 0 to 100, 0 no effect, 100 complete control
Outline: as §1

[7] = system: velvetleaf (Abutilon theophrasti); assay: Test B preemergence; conditions: Preemergence, Rate 500 g/ha; scale 0 to 100, 0 no effect, 100 complete control
Outline: as §1

[8] = system: lambsquarters (Chenopodium album); assay: Test B preemergence; conditions: scale 0 to 100, 0 no effect, 100 complete control
Outline: as §1

[9] = system: cocklebur (Xanthium strumarium); assay: Test B preemergence; conditions: scale 0 to 100, 0 no effect, 100 complete control
Outline: as §1

[10] = system: pigweed (Amaranthus retroflexus); assay: Test C preemergence; conditions: for Plant response rating (0 to 100), Pigweed: Rate 250 g/ha, visual evaluation after 12 to 14 days
Outline: (§2)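 Test chemicals, formulated in a non-phytotoxic solvent mixture with surfactant, were applied preemergence to planted seeds or postemergence to plants 2 to 18 cm tall (1- to 4-leaf stage). After 12 to 14 days in a greenhouse, injury was visually rated against untreated controls on a 0–100 scale.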

kochia (Kochia scoparia) = assay: Test C preemergence; conditions: for Plant response rating (0 to 100), Kochia: Rate 250 g/ha, visual evaluation after 12 to 14 days
Outline: as §2

[11] = system: woolly cupgrass (Eriochloa villosa); assay: Test C preemergence; conditions: for Plant response rating (0 to 100), Cupgrass, Woolly: Rate 250 g/ha, visual evaluation after 12 to 14 days
Outline: as §2

[12] = system: Surinam grass (Brachiaria decumbens); assay: Test C preemergence; conditions: for Plant response rating (0 to 100), Surinam grass: Rate 250 g/ha, visual evaluation after 12 to 14 days
Outline: as §2

[13] = system: giant foxtail (Setaria faberii); assay: Test C preemergence; conditions: for Plant response rating (0 to 100), Foxtail, Giant: Rate 250 g/ha, visual evaluation after 12 to 14 days
Outline: as §2

[14] = system: bermudagrass (Cynodon dactylon); assay: Test C preemergence; conditions: for Plant response rating (0 to 100 where 0 is no effect and 100 is complete control), Bermudagrass: Rate 250 g/ha, visual evaluation after 12 to 14 days
Outline: as §2

soybean (Glycine max) = assay: Test C preemergence; conditions: for Plant response rating (0 to 100), Soybean: Rate 250 g/ha, visual evaluation after 12 to 14 days
Outline: as §2

[15] = system: crabgrass (Digitaria sanguinalis); assay: Test C preemergence; conditions: for Plant response rating (0 to 100), Crabgrass: Rate 250 g/ha, visual evaluation after 12 to 14 days
Outline: as §2

[16] = system: cocklebur (Xanthium strumarium); assay: Test C preemergence; conditions: for Plant response rating (0 to 100), Cocklebur: Rate 250 g/ha, visual evaluation after 12 to 14 days
Outline: as §2

[17] = Rate 62 g/ha, scale 0 to 100, 0 no effect, 100 complete control
[18] = preemergence, Rate 31 g/ha, scale 0 to 100
[19] = preemergence, Rate 125 g/ha, scale 0 to 100, 0 no effect, 100 complete control

Q: With `CC(C)(C)c1ccn(C2CCN(c3ccc(Cl)c(Cl)c3)C2=O)n1` (centres unmarked) [Compound 34] as the molecule, how does the “Plant response rating, Sunflower” value (Sunflower) read?
A: 0

Q: And the “Plant response rating (0 to 100), Nightshade” value (Nightshade)?
A: 0

Q: And the “Plant response rating, Pigweed” value [1]?
A: 100

Q: And the “Plant response rating, Barnyardgrass” value ([2]; Preemergence, Rate 500 g/ha)?
A: 60

Q: And the “Plant response rating, Barnyardgrass” value ([2]; preemergence, Rate 125 g/ha)?
A: 0

Q: And the “Plant response rating, Morningglory” value [3]?
A: 0

Q: What about the “Plant response rating, Surinam grass” value ([4]; Preemergence, Rate 500 g/ha) of the same molecule?
A: 20

Q: What about the “Plant response rating, Surinam grass” value ([4]; preemergence, Rate 125 g/ha) of the same molecule?
A: 0

Q: What about the “Plant response rating, Rice” value (rice (Oryza saliva)) of the same molecule?
A: 0

Q: And the “Plant response rating, Corn” value (corn (Zea mays); Preemergence, Rate 500 g/ha)?
A: 0

Q: And the “Plant response rating, Corn” value (corn (Zea mays); preemergence, Rate 125 g/ha)?
A: 0

Q: And the “Plant response rating, Foxtail, Giant” value ([5]; Preemergence, Rate 500 g/ha)?
A: 70

Q: And the “Plant response rating, Foxtail, Giant” value ([5]; preemergence, Rate 125 g/ha)?
A: 0

Q: And the “Plant response rating, Crabgrass” value ([6]; preemergence, Rate 125 g/ha)?
A: 100

Q: And the “Plant response rating, Velvetleaf” value [7]?
A: 100

Q: What about the “Plant response rating, Lambsquarters” value ([8]; Preemergence, Rate 500 g/ha) of the same molecule?
A: 100

Q: What about the “Plant response rating, Lambsquarters” value ([8]; preemergence, Rate 125 g/ha) of the same molecule?
A: 20

Q: And the “Plant response rating, Cocklebur” value ([9]; Preemergence, Rate 500 g/ha)?
A: 0

Q: And the “Plant response rating, Cocklebur” value ([9]; preemergence, Rate 125 g/ha)?
A: 0

Q: What about the “Plant response rating, Pigweed” value [10, 17] of the same molecule?
A: 100

Q: What about the “Plant response rating, Pigweed” value [10, 18] of the same molecule?
A: 0

Q: And the “Plant response rating (0 to 100), Pigweed” value ([10]; preemergence)?
A: 40

Q: And the “Plant response rating, Pigweed” value [10, 19]?
A: 100

Q: And the “Plant response rating, Kochia” value (kochia (Kochia scoparia); [17])?
A: 100

Q: What about the “Plant response rating, Kochia” value (kochia (Kochia scoparia); [18]) of the same molecule?
A: 100

Q: What about the “Plant response rating (0 to 100), Kochia” value (kochia (Kochia scoparia); preemergence) of the same molecule?
A: 100

Q: What about the “Plant response rating, Kochia” value (kochia (Kochia scoparia); [19]) of the same molecule?
A: 100

Q: And the “Plant response rating, Cupgrass, Woolly” value [11, 17]?
A: 20

Q: And the “Plant response rating, Cupgrass, Woolly” value [11, 18]?
A: 0

Q: And the “Plant response rating (0 to 100), Cupgrass, Woolly” value ([11]; preemergence)?
A: 80

Q: What about the “Plant response rating, Cupgrass, Woolly” value [11, 19] of the same molecule?
A: 20

Q: And the “Plant response rating, Surinam grass” value [12, 17]?
A: 0

Q: What about the “Plant response rating, Surinam grass” value [12, 18] of the same molecule?
A: 0

Q: What about the “Plant response rating (0 to 100), Surinam grass” value ([12]; preemergence) of the same molecule?
A: 0

Q: What about the “Plant response rating, Surinam grass” value [12, 19] of the same molecule?
A: 0

Q: And the “Plant response rating, Foxtail, Giant” value [13, 17]?
A: 30

Q: And the “Plant response rating, Foxtail, Giant” value [13, 18]?
A: 30

Q: And the “Plant response rating (0 to 100), Foxtail, Giant” value ([13]; preemergence)?
A: 50

Q: What about the “Plant response rating, Foxtail, Giant” value [13, 19] of the same molecule?
A: 0

Q: And the “Plant response rating, Bermudagrass” value [14, 17]?
A: 80

Q: And the “Plant response rating, Bermudagrass” value [14, 18]?
A: 0

Q: And the “Plant response rating (0 to 100 where 0 is no effect and 100 is complete control), Bermudagrass” value ([14]; preemergence)?
A: 100

Q: What about the “Plant response rating, Bermudagrass” value [14, 19] of the same molecule?
A: 90

Q: What about the “Plant response rating, Soybean” value (soybean (Glycine max); [17]) of the same molecule?
A: 0

Q: What about the “Plant response rating, Soybean” value (soybean (Glycine max); [18]) of the same molecule?
A: 0

Q: What about the “Plant response rating (0 to 100), Soybean” value (soybean (Glycine max); preemergence) of the same molecule?
A: 0

Q: What about the “Plant response rating, Soybean” value (soybean (Glycine max); [19]) of the same molecule?
A: 0

Q: And the “Plant response rating, Crabgrass” value [15, 17]?
A: 60

Q: And the “Plant response rating, Crabgrass” value [15, 18]?
A: 0

Q: And the “Plant response rating (0 to 100), Crabgrass” value ([15]; preemergence)?
A: 100

Q: And the “Plant response rating, Crabgrass” value [15, 19]?
A: 70

Q: What about the “Plant response rating, Cocklebur” value [16, 17] of the same molecule?
A: 0

Q: What about the “Plant response rating, Cocklebur” value [16, 18] of the same molecule?
A: 0

Q: And the “Plant response rating (0 to 100), Cocklebur” value ([16]; preemergence)?
A: 0

Q: What about the “Plant response rating, Cocklebur” value [16, 19] of the same molecule?
A: 0

Q: What does the source list for `CC(C)(C)c1ccn(C2SCN(c3cccc(OC(F)F)c3)C2=O)n1` (centres unmarked) [Compound 36]?
A: Plant response rating, Sunflower (Sunflower): 0; Plant response rating (0 to 100), Nightshade (Nightshade): 90; Plant response rating, Pigweed [1]: 100; Plant response rating, Barnyardgrass ([2]; Preemergence, Rate 500 g/ha): 100; Plant response rating, Barnyardgrass ([2]; preemergence, Rate 125 g/ha): 100; Plant response rating, Morningglory [3]: 0; Plant response rating, Surinam grass ([4]; Preemergence, Rate 500 g/ha): 100; Plant response rating, Surinam grass ([4]; preemergence, Rate 125 g/ha): 70; Plant response rating, Rice (rice (Oryza saliva)): 90; Plant response rating, Corn (corn (Zea mays); Preemergence, Rate 500 g/ha): 0; Plant response rating, Corn (corn (Zea mays); preemergence, Rate 125 g/ha): 0; Plant response rating, Foxtail, Giant ([5]; Preemergence, Rate 500 g/ha): 100; Plant response rating, Foxtail, Giant ([5]; preemergence, Rate 125 g/ha): 100; Plant response rating, Crabgrass ([6]; Preemergence, Rate 500 g/ha): 100; Plant response rating, Crabgrass ([6]; preemergence, Rate 125 g/ha): 100; Plant response rating, Velvetleaf [7]: 0; Plant response rating, Lambsquarters ([8]; Preemergence, Rate 500 g/ha): 100; Plant response rating, Lambsquarters ([8]; preemergence, Rate 125 g/ha): 100; Plant response rating, Cocklebur ([9]; Preemergence, Rate 500 g/ha): 0; Plant response rating, Cocklebur ([9]; preemergence, Rate 125 g/ha): 0; Plant response rating, Pigweed [10, 17]: 0; Plant response rating, Pigweed [10, 18]: 0; Plant response rating (0 to 100), Pigweed ([10]; preemergence): 100; Plant response rating, Pigweed [10, 19]: 0; Plant response rating, Kochia (kochia (Kochia scoparia); [17]): 100; Plant response rating, Kochia (kochia (Kochia scoparia); [18]): 70; Plant response rating (0 to 100), Kochia (kochia (Kochia scoparia); preemergence): 100; Plant response rating, Kochia (kochia (Kochia scoparia); [19]): 100; Plant response rating, Cupgrass, Woolly [11, 17]: 60; Plant response rating, Cupgrass, Woolly [11, 18]: 30; Plant response rating (0 to 100), Cupgrass, Woolly ([11]; preemergence): 100; Plant response rating, Cupgrass, Woolly [11, 19]: 100; Plant response rating, Surinam grass [12, 17]: 70; Plant response rating, Surinam grass [12, 18]: 20; Plant response rating (0 to 100), Surinam grass ([12]; preemergence): 100; Plant response rating, Surinam grass [12, 19]: 70; Plant response rating, Foxtail, Giant [13, 17]: 0; Plant response rating, Foxtail, Giant [13, 18]: 90; Plant response rating (0 to 100), Foxtail, Giant ([13]; preemergence): 100; Plant response rating, Foxtail, Giant [13, 19]: 100; Plant response rating, Bermudagrass [14, 17]: 100; Plant response rating, Bermudagrass [14, 18]: 100; Plant response rating (0 to 100 where 0 is no effect and 100 is complete control), Bermudagrass ([14]; preemergence): 100; Plant response rating, Bermudagrass [14, 19]: 100; Plant response rating, Soybean (soybean (Glycine max); [17]): 30; Plant response rating, Soybean (soybean (Glycine max); [18]): 30; Plant response rating (0 to 100), Soybean (soybean (Glycine max); preemergence): 50; Plant response rating, Soybean (soybean (Glycine max); [19]): 50; Plant response rating, Crabgrass [15, 17]: 100; Plant response rating, Crabgrass [15, 18]: 90; Plant response rating (0 to 100), Crabgrass ([15]; preemergence): 100; Plant response rating, Crabgrass [15, 19]: 100; Plant response rating, Cocklebur [16, 17]: 30; Plant response rating, Cocklebur [16, 18]: 0; Plant response rating (0 to 100), Cocklebur ([16]; preemergence): 30
